# According to patent publication US10391115B2, “Anticancer adjuvant composition containing RIP3 expression promoter as active ingredient, method for screening for anticancer adjuvant enhancing sensitivity of anticancer drug by promoting RIP3 expression, and method for monitoring sensitivity of anticancer drug” (AJOU UNIVERSITY INDUSTRY-ACADEMIC COOPERATION FOUNDATION, priority 2014, dated 2019):
# Tests used:
# [1] = system: HeLa cell line (non-target / shRIP3); assay: Sensitization by 5-AD plus anticancer drug in non-target and shRIP3 HeLa cell lines (immunoblotting, MTT assay); type: cell-based, human
# Method: A MISSION short-hairpin RNA (shRNA) plasmid that targets the coding region or 3′ UTR of hRIP3 mRNA (NM_006871) or a non-target control sequence (NM-027088) were obtained from Sigma-Aldrich. A Lentivirus plasmid was transfected into 293T cells (System Biosciences, LV900A-1) using Lipofectamine 2000 (Invitrogen, 11668019). Pseudoviral particles were collected at 2 days after transfection of the Lentivirus plasmid and infected into various cancer cells in the presence of polybrene (10 μg/mL). At 2 days after infection, infected cells were selected with puromycin, and RIP3 knockdown was confirmed by immunoblotting. Cells without endogenous RIP3 were afterwards treated with 5-AD for 4 days and analyzed by immunoblotting.
# Unlike a non-target cell line, in the case of a shRIP3 cell line, RIP3 expression in the cell line was inhibited by shRNA, even though the cell line was treated with 5-AD. Thus, the effect of RIP3 on sensitization of the cell line by a combined treatment with the anticancer drug and the demethylating agent could be confirmed. […] In addition, after the same number of cells seeded, the sensitization effect by the combined treatment with the anticancer drug was analyzed using a cell viability assay (MTT assay) (FIG. 6).
# Because the demethylating agent (5-AD or 5-AZA) is not a specific drug for a certain protein, it may cause expression of various proteins in addition to RIP3.
# [2] = system: RIP3 expression in cancer cell lines (HeLa, MDA-MB231, BT549); assay: RIP3 expression by demethylating agent 5-AD, Western blotting; type: cell-based; details: MDA-MB231, BT549 that express no RIP3, 5-AD 2 uM, treated two times for 4 days
# Method: (§1) Cells were lysed in M2 buffer. Equal amounts of cell extracts were analyzed by SDS-PAGE and immunoblotting, and blots were visualized by enhanced chemiluminescence (ECL, Amersham).
# [3] = system: HeLa cell lines; assay: Sensitization of cancer cell death by combined treatment with demethylating agent and anticancer drug; details: pretreated two times for 4 days to induce RIP3 expression, then anticancer drug
# [4] = system: RIP3 expression in DLD-1 colorectal cancer cell line; assay: RIP3 expression by demethylating agent 5-AZA, Western blotting; type: cell-based; details: DLD-1 not expressing RIP3; various concentrations of 5-AZA, treated two times for 4 days
# Method: as §1
# [5] = system: T47D breast cancer cells; assay: Viability assay (MTT) of RIP3-silenced T47D cells with anticancer drugs; type: cell-based, human; details: 48 hours; for anticancer drug resistance (MTT assay): RIP3-knocked down T47D test group vs control group; for cell killing (MTT assay): control group T47D
# Method: In order to examine whether RIP3 also has an effect on breast cancer cells, RIP3-expressing T47D cells were used. First, the cells were infected with RIP3 in the same manner as described in Example 6.
# In order to examine whether RIP3 increases anticancer drug sensitivity in T47D breast cancer cells, an MTT assay was performed. A control group and a RIP3-knocked down test group were incubated with doxorubicin, etoposide and taxol at the concentrations shown in FIG. 11 (right) for 48 hours.
# [6] = system: HT-29 cells; assay: Viability assay (MTT) of RIP3-silenced HT-29 cells with anticancer drugs; type: cell-based, human; details: doxorubicin 2.5 and 5 uM, etoposide 50 and 100 uM, 48 hours
# Method: HT-29 cells (American Tissue Culture Collection) were cultured in a 37° C. incubator using DMEM medium supplemented with penicillin-streptomycin (10 IU/ml) and 10% FBS. The shRNAi double strand used in the present invention was commercially synthesized by Sigma-Aldrich. The shRNA used in the present invention was designed so as to target the coding region of a human RIPK3 mRNA sequence (NCBI Reference sequence NM_006871).
# First, cultured HT-29 cells were dispensed in a 35-mm dish at a density of 2×10^5 cells. On the next day, the cells were infected with shRNA particles together with polybrene (10 ug/ml) according to the protocol's instruction.
# In the present invention, in order to examine whether the RIP3 gene is associated with anticancer drug sensitivity, HT-29 cells infected with RIP3 shRNA were treated with varying concentrations of doxorubicin and etoposide, and then the cell viability of the cancer cells was measured. Particularly, HT-29 cells infected with RIP3 shRNA were treated with 2.5 uM and 5 uM of doxorubicin and 50 uM and 100 uM of etoposide, and then incubated for 48 hours. After the medium was replaced with a fresh medium containing 0.1 mg of MTT (3-([4,5-dimethylthiazol-2-yl]-2,5-diphenyltetrazolium bromide), the cells were further incubated for 2 hours. Colorimetric analysis was performed on a precipitate obtained by reducing a tetrazolium salt, in which viable cells is dissolved, into purple formazan crystal. Next, the medium was removed, and the produced formazan crystal was dissolved in 500 ul of DMSO, and the absorbance was measured using an ELISA reader at 570 nm. Cell viability was expressed as a percentage relative to the control taken as 100% viability.
# [7] = RIP3 knocked down with shRNA HT-29
# [8] = control group (non-target shRNA) HT-29
Compound,sensitization to cell death by anticancer drug after demethylating agent pretreatment [3],anticancer drug resistance (MTT assay) [5],cell killing (MTT assay) [5],"cell viability (MTT) [6, 7]","cell viability (MTT) [6, 8]",other results
"Nc1ncn([C@H]2C[C@H](O)[C@@H](CO)O2)c(=O)n1 [5-AD, 5-aza-2′-deoxycytidine]",sensitized to anticancer drug,,,,,"sensitization of cancer cell death by combined treatment with anticancer drug ([1]; non-target HeLa cell line, 5-AD treated two times for 4 days): showed the effect of sensitizing the cancer cell death by RIP3 expression; sensitization of cancer cell death by combined treatment with anticancer drug (cell viability assay) ([1]; shRIP3 HeLa cell line that expresses no RIP3): the sensitization effect was inhibited; RIP3 expression after 5-AD treatment ([1]; shRIP3 HeLa cell line, 5-AD treated two times for 4 days): RIP3 was not expressed; RIP3 expression (Western blotting) [2]: RIP3 expression was induced"
"Nc1ncn([C@@H]2O[C@H](CO)[C@@H](O)[C@H]2O)c(=O)n1 [5-AZA, 5-azacytidine]",the effect of sensitizing the cancer cell line to cell death was obtained,,,,,RIP3 expression (Western blotting) [4]: RIP3 expression was induced
COc1cccc2c1C(=O)c1c(O)c3c(c(O)c1C2=O)C[C@@](O)(C(=O)CO)C[C@@H]3O[C@H]1C[C@H](N)[C@H](O)[C@H](C)O1 [doxorubicin],,significantly increased compared to that of the control group,killed dependently on the concentration,the cell viability increased compared to that of the control group,the cell viability decreased dependently on the concentration,
COc1cc([C@@H]2c3cc4c(cc3[C@@H](O[C@@H]3O[C@@H]5CO[C@@H](C)O[C@H]5[C@H](O)[C@H]3O)[C@H]3COC(=O)[C@H]23)OCO4)cc(OC)c1O [etoposide],,significantly increased compared to that of the control group,killed dependently on the concentration,the cell viability increased compared to that of the control group,the cell viability decreased dependently on the concentration,
CC(=O)O[C@H]1C(=O)[C@@]2(C)[C@H]([C@H](OC(=O)c3ccccc3)[C@]3(O)C[C@H](OC(=O)[C@H](O)[C@@H](NC(=O)c4ccccc4)c4ccccc4)C(C)=C1C3(C)C)[C@]1(OC(C)=O)CO[C@@H]1C[C@@H]2O [taxol],,significantly increased compared to that of the control group,killed dependently on the concentration,,,
